Data: patent US11040028B2, “Penicinotam derivative, preparation method and use thereof” (OCEAN UNIVERSITY OF CHINA, priority 2017, dated 2021)

What was measured:
Assay type in all cases: cell-based
[1] = test system: human fibrosarcoma cells HT-1080; assay: Anti-fibrosis activity test: inhibition of proliferation of human fibrosarcoma cells HT-1080 (CCK-8); settings: Homo sapiens, HT-1080, 48 h, human fibrosarcoma cells HT-1080, CCK-8, 48 hours
Summary of the method: (§1)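 After one day of adherence at 37° C in 5% CO2, cells (seeded at 2×10^4 cells/mL) received the compounds for two days in triplicate. Inhibition of proliferation was quantified with CCK-8 at 450 nm, with IC50 calculated from IR = (1−Ai/Ao)×100%.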

[2] = test system: human embryonic lung fibroblast IMR-90; assay: Anti-fibrosis activity test: inhibition of proliferation of human embryonic lung fibroblast IMR-90 (CCK-8); settings: human embryonic lung fibroblast IMR-90, CCK-8, 48 hours
Summary of the method: as §1

[3] = test system: human hepatic stellate cells LX-2; assay: Anti-fibrosis activity test: inhibition of proliferation of human hepatic stellate cells LX-2 (CCK-8); settings: Homo sapiens, 48 h, human hepatic stellate cells LX-2, CCK-8, 48 hours
Summary of the method: as §1

[4] = test system: human lung fibroblasts HFL1; assay: Anti-fibrosis activity test: inhibition of proliferation of human lung fibroblasts HFL1 (CCK-8); settings: Homo sapiens, HFL1, 48 h, human lung fibroblasts HFL1, CCK-8, 48 hours
Summary of the method: as §1

[5] = test system: BHK-21 cells; assay: Anti-fibrosis activity test: inhibition of BHK-21 cell proliferation (CCK-8); settings: Mesocricetus auratus, BHK-21, 48 h, CCK-8, 48 hours after administration
Summary of the method: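 Cells plated 2×10^4 cells/mL; 24 h attach; compound dilutions, triplicate, 48 h, 37° C/5% CO2; CCK-8 2 h; A450; IR = (1−Ai/Ao)×100%; IC50 by curve fit.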

[6] = test system: mouse macrophages (RAW264.7); assay: Lipopolysaccharide-induced NO secretion in macrophages (Griess); settings: Mus musculus, RAW264.7, 24 h, RAW264.7, LPS 1 μg/ml, a/b isomers given as first/second symbol, read-out: IC50 (μM), inhibition of lipopolysaccharide-induced NO secretion in macrophages
Protocol: The effects of the compounds of the present application on the lipopolysaccharide-induced NO secretion in macrophage was tested Principle: Anti-inflammatory drug activity screening is to detect the inhibitory effect of compounds on NO production in the mouse macrophages (RAW264.7). When immune cells are stimulated by microbial endotoxin, inflammatory mediators, etc., a large amount of induced NO synthase (iNOS) is produced, and thus NO is generated for immune response. Accordingly, the inhibition of NO production can serve as a direct indicator of the anti-inflammatory activity of the compound. The activity of the compound to inhibit NO production at the cellular level is directly evaluated in the abovementioned test model, thereby reflecting the anti-inflammatory activity of the compound. In this experiment, the content of NO in the medium was detected by Gris kit (Molecular probes, G-7921). Macrophages (Raw264.7) were cultured in DMEM medium containing 10% fetal bovine serum, with the cell concentration adjusted. The cells were seeded in 24-well cell culture plates, cultured in an incubator, and the test samples in different concentrations were added every other day. The blank medium was used as a blank control, and commercially available indomethacin and resveratrol were employed as positive controls. After the addition of lipopolysaccharide (LPS, 1 μg/ml), incubation was performed for 24 hours. Then the supernatant culture solution was taken, to […] reagent was added, and the absorbance value was measured by a microplate reader at 548 nm. Inhibition rate=([…])×100%.

[7] = test system: human dermal fibroblasts CCC-ESF-1; assay: Anti-fibrosis activity test: inhibition of proliferation of human dermal fibroblasts CCC-ESF-1 (CCK-8); settings: Fibroblast; human dermal fibroblasts CCC-ESF-1, CCK-8, 48 hours
Summary of the method: as §1

[8] = test system: cardiac fibroblast RAT-iCell-C002; assay: Anti-fibrosis activity test: inhibition of proliferation of cardiac fibroblast RAT-iCell-C002 (CCK-8); settings: Cardiac fibroblast, 48 h, cardiac fibroblast RAT-iCell-C002, CCK-8, 48 hours
Summary of the method: as §1

Structure (SMILES)	IC50 [1]	IC50 [2]	IC50 [3]	IC50 [4]	IC50 [5]	IC50 [6]	IC50 [7]	IC50 [8]
O=C1c2c(n(-c3ccc(Cl)cc3)c3ccc(C(F)(F)F)cc3c2=O)-c2cccn21 [Compound 276a, 4-(4-Chlorophenyl)-7-(trifluoromethyl)-9H-pyrrolizino[1,2-b]quinoline-9,10(4H)-dione]	0.05 to 5 mM	0.05 to 5 mM	0.05 to 5 mM	0.05 to 5 mM	< 0.05 mM	0.1 to 1 µM	0.05 to 5 mM	5 to 20 mM
O=C1c2c(nc3ccc(C(F)(F)F)cc3c2Oc2ccc(Cl)cc2)-c2cccn21 [Compound 276b, 9-(4-chlorophenoxy)-7-(trifluoromethyl)-10H-pyrrolizino[1,2-b]quinolin-10-one]	0.05 to 5 mM	0.05 to 5 mM	0.05 to 5 mM	0.05 to 5 mM	0.05 to 5 mM	1 to 10 µM	0.05 to 5 mM	0.05 to 5 mM
O=C1c2c(n(-c3ccc(Cl)cc3)c3ccc(OC(F)(F)F)cc3c2=O)-c2cccn21 [Compound 300a, 4-(4-Chlorophenyl)-7-(trifluoromethoxy)-9H-pyrrolizino[1,2-b]quinoline-9,10(4H)-dione]	0.05 to 5 mM	0.05 to 5 mM	0.05 to 5 mM	0.05 to 5 mM	5 to 20 mM	0.1 to 1 µM	0.05 to 5 mM	0.05 to 5 mM
O=C1c2c(nc3ccc(OC(F)(F)F)cc3c2Oc2ccc(Cl)cc2)-c2cccn21 [Compound 300b, 9-(4-chlorophenoxy)-7-(trifluoromethoxy)-10H-pyrrolizino[1,2-b]quinolin-10-one]	0.05 to 5 mM	0.05 to 5 mM	0.05 to 5 mM	0.05 to 5 mM	0.05 to 5 mM	1 to 10 µM	0.05 to 5 mM	0.05 to 5 mM
CCn1c2c(c(=O)c3cc(F)c(N4CCNCC4)cc31)C(=O)n1cccc1-2 [Compound 329a, 4-Ethyl-7-fluoro-6-(piperazin-1-yl)-9H-pyrrolizino[1,2-b]quinoline-9,10(4H)-dione]	0.05 to 5 mM	0.05 to 5 mM	0.05 to 5 mM	0.05 to 5 mM	0.05 to 5 mM	1 to 10 µM	0.05 to 5 mM	5 to 20 mM
CCOc1c2c(nc3cc(N4CCNCC4)c(F)cc13)-c1cccn1C2=O [Compound 329b, 9-ethoxy-7-fluoro-6-(piperazin-1-yl)-10H-pyrrolizino[1,2-b]quinolin-10-one]	0.05 to 5 mM	0.05 to 5 mM	0.05 to 5 mM	0.05 to 5 mM	0.05 to 5 mM	1 to 10 µM	0.05 to 5 mM	< 0.05 mM
CC(C)n1c2c(c(=O)c3cc(F)c(N4CCNCC4)cc31)C(=O)n1cccc1-2 [Compound 331a, 7-Fluoro-4-isopropyl-6-(piperazin-1-yl)-9H-pyrrolizino[1,2-b]quinoline-9,10(4H)-dione]	0.05 to 5 mM	0.05 to 5 mM	0.05 to 5 mM	0.05 to 5 mM	0.05 to 5 mM	1 to 10 µM	0.05 to 5 mM	0.05 to 5 mM
CC(C)Oc1c2c(nc3cc(N4CCNCC4)c(F)cc13)-c1cccn1C2=O [Compound 331b, 7-fluoro-9-isopropoxy-6-(piperazin-1-yl)-10H-pyrrolizino[1,2-b]quinolin-10-one]	< 0.05 mM	0.05 to 5 mM	0.05 to 5 mM	0.05 to 5 mM	0.05 to 5 mM	1 to 10 µM	0.05 to 5 mM	0.05 to 5 mM
O=C1c2c(n(C3CC3)c3cc(N4CCNCC4)c(F)cc3c2=O)-c2cccn21 [Compound 340a, 4-Cyclopropyl-7-fluoro-6-(piperazin-1-yl)-9H-pyrrolizino[1,2-b]quinoline-9,10(4H)-dione]	5 to 20 mM	0.05 to 5 mM	0.05 to 5 mM	0.05 to 5 mM	0.05 to 5 mM	0.1 to 1 µM	0.05 to 5 mM	0.05 to 5 mM
O=C1c2c(nc3cc(N4CCNCC4)c(F)cc3c2OC2CC2)-c2cccn21 [Compound 340b, 9-cyclopropoxy-7-fluoro-6-(piperazin-1-yl)-10H-pyrrolizino[1,2-b]quinolin-10-one]	0.05 to 5 mM	0.05 to 5 mM	0.05 to 5 mM	0.05 to 5 mM	0.05 to 5 mM	1 to 10 µM	0.05 to 5 mM	0.05 to 5 mM
O=C1c2c(n(C(=O)c3ccco3)c3cc(N4CCNCC4)c(F)cc3c2=O)-c2cccn21 [Compound 343a, 7-Fluoro-4-(furan-2-carbonyl)-6-(piperazin-1-yl)-9H-pyrrolizino[1,2-b]quinoline-9,10(4H)-dione]	< 0.05 mM	0.05 to 5 mM	0.05 to 5 mM	0.05 to 5 mM	0.05 to 5 mM	1 to 10 µM	0.05 to 5 mM	0.05 to 5 mM
O=C(Oc1c2c(nc3cc(N4CCNCC4)c(F)cc13)-c1cccn1C2=O)c1ccco1 [Compound 343b, 7-fluoro-10-oxo-6-(piperazin-1-yl)-10H-pyrrolizino[1,2-b]quinolin-9-ylfuran-2-carboxylate]	0.05 to 5 mM	0.05 to 5 mM	0.05 to 5 mM	0.05 to 5 mM	0.05 to 5 mM	1 to 10 µM	0.05 to 5 mM	0.05 to 5 mM
O=C1c2c(n(CCO)c3cc(N4CCNCC4)c(F)cc3c2=O)-c2cccn21 [Compound 348a, 7-Fluoro-4-(2-hydroxyethyl)-6-(piperazin-1-yl)-9H-pyrrolizino[1,2-b]quinoline-9,10(4H)-dione]	0.05 to 5 mM	0.05 to 5 mM	0.05 to 5 mM	0.05 to 5 mM	20 to 100 mM	1 to 10 µM	0.05 to 5 mM	0.05 to 5 mM
O=C1c2c(nc3cc(N4CCNCC4)c(F)cc3c2OCCO)-c2cccn21 [Compound 348b, 7-fluoro-9-(2-hydroxyethoxy)-6-(piperazin-1-yl)-10H-pyrrolizino[1,2-b]quinolin-10-one]	0.05 to 5 mM	0.05 to 5 mM	< 0.05 mM	0.05 to 5 mM	0.05 to 5 mM	1 to 10 µM	0.05 to 5 mM	0.05 to 5 mM
C=CCn1c2c(c(=O)c3cc(F)c(N4CCNCC4)cc31)C(=O)n1cccc1-2 [Compound 349a, 4-Allyl-7-fluoro-6-(piperazin-1-yl)-9H-pyrrolizino[1,2-b]quinoline-9,10(4H)-dione]	0.05 to 5 mM	0.05 to 5 mM	0.05 to 5 mM	0.05 to 5 mM	0.05 to 5 mM	1 to 10 µM	0.05 to 5 mM	0.05 to 5 mM
C=CCOc1c2c(nc3cc(N4CCNCC4)c(F)cc13)-c1cccn1C2=O [Compound 349b, 9-(allyloxy)-7-fluoro-6-(piperazin-1-yl)-10H-pyrrolizino[1,2-b]quinolin-10-one]	0.05 to 5 mM	0.05 to 5 mM	0.05 to 5 mM	0.05 to 5 mM	0.05 to 5 mM	1 to 10 µM	0.05 to 5 mM	0.05 to 5 mM
CC(C)=CCn1c2c(c(=O)c3cc(F)c(N4CCNCC4)cc31)C(=O)n1cccc1-2 [Compound 354a, 7-Fluoro-4-(3-methylbut-2-en-1-yl)-6-(piperazin-1-yl)-9H-pyrrolizino[1,2-b]quinoline-9,10(4H)-dione]	0.05 to 5 mM	0.05 to 5 mM	5 to 20 mM	0.05 to 5 mM	0.05 to 5 mM	1 to 10 µM	0.05 to 5 mM	< 0.05 mM
CC(C)=CCOc1c2c(nc3cc(N4CCNCC4)c(F)cc13)-c1cccn1C2=O [Compound 354b, 7-fluoro-9-((3-methylbut-2-en-1-yl)oxy)-6-(piperazin-1-yl)-10H-pyrrolizino[1,2-b]quinolin-10-one]	0.05 to 5 mM	0.05 to 5 mM	5 to 20 mM	0.05 to 5 mM	0.05 to 5 mM	1 to 10 µM	0.05 to 5 mM	0.05 to 5 mM
